Experimental data as given in article PMC11421016, “Biotransformation and Epithelial Toxicity of Prenylated Phenolics from Licorice Roots (Glycyrrhiza spp.) in 3D Apical-Out Mucus-Producing Human Enteroids” (Journal of Agricultural and Food Chemistry, 2024).
Read-outs that look alike come from different tables or passages of the source.

Key:
Caco-2 cells = assay: Cytotoxicity by LDH leakage assay in Caco-2 cells; type: cell-based, human; conditions: proliferating and differentiated Caco-2 cells (differentiated: ref 17), cutoff 25%
Procedure: The human colon adenocarcinoma cell line (Caco-2) was obtained from the American Type Culture Collection (ATCC; Manassas, VA, USA). Caco-2 cells were cultured in DMEM, in a humidified atmosphere of 5% CO2 at 37 °C until 80–90% confluency was reached. Effects on the cytotoxicity and cell viability (Section 2.6) were assessed in proliferating and differentiated Caco-2 cells. The effects on differentiated Caco-2 cells were recently described in our publication.[17] Proliferating and differentiated Caco-2 cells were seeded into 96-well plates at a density of 15,000 cells per cm^2.
Cytotoxicity and effects on cell viability after exposure to glab, licoA, and glycy in apical-out and apical-in enteroids (6.25–500 μg mL^–1) and proliferating Caco-2 cells (3.13–100 μg mL^–1) were determined by LDH leakage (Section 2.6.1) and WST-1 assays (Section 2.6.2), respectively. For this, stock solutions of 50 mg mL^–1 of glab, licoA, and glycy in DMSO were used. […] After 3 days in ODM, the effects on cytotoxicity and cell viability of glab, licoA, and glycy in apical-out and apical-in enteroids (passages between 3 and 17) were assessed after 4 and 24 h of incubation. […]
Cytotoxic effects of glab, licoA, and glycy were assessed by measuring leakage of intracellular lactate dehydrogenase (LDH) in the supernatant and analyzed using an LDH cytotoxicity detection kit (Roche Applied Science, Almere, The Netherlands), according to the manufacturer’s instructions. The LDH activity in the supernatant was expressed as the percentage of the maximum releasable LDH in enteroids or Caco-2 cells (enteroids or Caco-2 cells treated with 1% (v/v) Triton X-100) and calculated with eq 1. […] 1 in which exp. value is the UV absorbance at 492 nm (Tecan Spark or Tecan Infinite 200 Pro, Tecan Group Ltd., Zürich, Switzerland), background control is the medium with corresponding concentration of glab, licoA, or glycy, and high control is the maximum releasable LDH in enteroids or Caco-2 cells. […]

[1] = system: human ileal apical-out enteroids; conditions: 12.5 μg mL^–1 (34–39 μM), 4 h exposure
Procedure: Effects on barrier integrity of apical-out enteroids after glab, licoA, and glycy exposure were evaluated with a dextran diffusion assay, adapted from Co et al.[14] […] Enteroids were allowed to settle by gravity (5 min) into a pellet, the FITC-dextran 4 kDa was aspirated, and enteroids were washed with DMEM/F12 (3 min, 250g, RT). Enteroids were suspended in fresh DMEM/F12, and they were imaged with an EVOS FL Auto 2 cell imaging system. Images were analyzed using ImageJ software (version 1.52).

[2] = system: human apical-in ileal enteroids; assay: Biotransformation in apical-in ileal enteroids (RP-UHPLC-PDA-MSn); type: in vitro ADME; conditions: for biotransformation products formed: identified at the basolateral side; for phase I metabolites: up to 24 h incubation
Procedure: Biotransformation of glab, licoA, and glycy in apical-out and apical-in enteroids was evaluated after 0, 4, and 24 h of incubation. For this, apical-out enteroids were stimulated with 50 μg mL^–1 (154 μM) glab, or with 100 μg mL^–1 licoA (296 μM), or 100 μg mL^–1 glycy (272 μM), and apical-in enteroids were stimulated with 50 μg mL^–1 glab (154 μM), 50 μg mL^–1 licoA (148 μM), or 50 μg mL^–1 glycy (136 μM). […] For apical-out enteroids, parent compounds and their transformation products were assessed on the enteroids’ apical (facing the medium) and basolateral side (inside the enteroids) and intracellularly. In apical-in enteroids, parent compounds and metabolites were assessed on the basolateral side (facing the medium). For the apical release, apical-out enteroids were pelleted (250g, 3 min, 4 °C), and the supernatant was used for LC-MS analysis, after which the enteroids were washed with PBS. Enteroids in a suspension in fresh PBS were broken up by vigorously pipetting up and down approximately for 20 times, after which enteroids were pelleted and the supernatant was used to determine basolateral release by using LC-MS. Enteroids were washed with PBS, and the enteroids’ cells in fresh PBS were disrupted on ice with a digital sonifier (Branson Ultrasonics Corporation, Danbury, CT, USA) with the following settings: a 5 s pulse, a 10 s pause, an amplitude of 55%, and 12 cycles. Enteroids were pelleted, and the supernatant was used as a measure for intracellular release and measured with LC-MS.
Samples were separated on a Thermo Vanquish UHPLC system (Thermo Scientific, San Jose, CA, USA) equipped with a pump, a degasser, an autosampler, and a PDA detector, as described elsewhere.[15] Eluents used were (A) LC-MS-grade MQ + 0.1% FA (v/v) and (B) LC-MS-grade ACN + 0.1% FA (v/v). The elution program was started by running isocratically at 1% B for 1.09 min followed by a 1.09–26.16 min linear gradient to 70% B, a 26.16–27.25 min linear gradient to 100% B, and 27.25–32.70 min isocratically at 100% B. The eluent was adjusted to start conditions in 1.09 min followed by equilibration of 5.45 min.
Mass spectrometric data were acquired using an LTQ Velos Pro linear ion trap mass spectrometer (Thermo Scientific), equipped with a heated ESI probe coupled in-line to the Vanquish UHPLC system, as described elsewhere.[15] Data were processed using Xcalibur 4.1 (Thermo Scientific).
Quantification of glab, licoA, glycy, and produced metabolites was based on UV absorbance at 280 nm (glab), 340–390 nm (licoA), and 320–370 nm (glycy). For this, a seven-point calibration (0.01–150 μg mL^–1) curve based on external standards of glab, licoA, and glycy (R^2 > 0.999) was used. UV peaks were integrated using the AVALON integration algorithm with the autocalc function (Xcalibur 4.1). Metabolites were quantified as glab, licoA, or glycy equivalents.

Gram-positive bacteria = system: Gram-positive bacteria; design: method as in PMID 36377761; conditions: against Gram-positive bacteria, cited from earlier work

Structure (SMILES)	highest nontoxic concentration (LDH) (Caco-2 cells)	epithelial barrier (membrane) integrity [1]	biotransformation products formed [2]	phase I metabolites [2]	minimum inhibitory concentration (MIC) (Gram-positive bacteria)	minimum inhibitory concentration (MIC) (Gram-positive bacteria; equivalent of 12.5 μg mL^–1)	% biotransformation to glucuronide compared to parent at t = 0 h ([2]; 24 h exposure, 50 μg mL^–1, basolateral side)
CC1(C)C=Cc2c(ccc3c2OC[C@@H](c2ccc(O)cc2O)C3)O1 [glabridin]	around 75 μM	did not seem to disrupt	transformed to their glucuronides	no phase I metabolites were identified	12.5 μg mL^–1	39 µM	
COc1c(CC=C(C)C)c(O)cc2oc(=O)c(-c3ccc(O)cc3O)cc12 [glycycoumarin]	around 75 μM	did not seem to disrupt	transformed to their glucuronides	no phase I metabolites were identified	12.5 μg mL^–1	34 µM	
C=CC(C)(C)c1cc(/C=C/C(=O)c2ccc(O)cc2)c(OC)cc1O [licochalcone A]	around 75 μM	did not seem to disrupt	transformed to their glucuronides	no phase I metabolites were identified	12.5 μg mL^–1	37 µM	comparably low
